Bounds are passed on as bounds.

For the experiment, the target named is RNA-directed RNA polymerase (Hepacivirus hominis, UniProt O39930). The experiment in a line: Inhibition HCV NS5B-mediated RNA synthesis. Format: functional.
Chain of RNA-directed RNA polymerase (O39930 whole entry): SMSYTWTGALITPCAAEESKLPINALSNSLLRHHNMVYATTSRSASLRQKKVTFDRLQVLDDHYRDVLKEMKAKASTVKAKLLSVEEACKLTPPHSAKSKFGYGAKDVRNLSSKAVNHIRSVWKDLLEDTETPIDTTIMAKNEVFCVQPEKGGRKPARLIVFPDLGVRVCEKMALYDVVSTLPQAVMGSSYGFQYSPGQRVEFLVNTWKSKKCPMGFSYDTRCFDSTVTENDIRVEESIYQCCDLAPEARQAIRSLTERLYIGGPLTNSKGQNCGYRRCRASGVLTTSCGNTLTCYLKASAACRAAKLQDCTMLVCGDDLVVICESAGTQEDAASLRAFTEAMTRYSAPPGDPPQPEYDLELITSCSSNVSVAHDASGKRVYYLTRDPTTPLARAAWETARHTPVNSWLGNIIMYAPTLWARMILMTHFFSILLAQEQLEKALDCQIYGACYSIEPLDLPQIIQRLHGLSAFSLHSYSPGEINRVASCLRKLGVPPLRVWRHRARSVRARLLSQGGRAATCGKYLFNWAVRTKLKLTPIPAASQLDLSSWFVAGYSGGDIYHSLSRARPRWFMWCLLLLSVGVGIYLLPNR
As a reminder, the IC50 is the concentration at which inhibition is half-maximal. Read a low IC50 as inhibition by little substance. For the molecule `C[C@]1(O)[C@@H](CO)O[C@@H](n2cnc3c(N)ncnc32)[C@@H]1O`, the IC50 was more than 50 µM. Then `C[C@@]1(O)[C@H](O)[C@@H](CO)O[C@H]1n1cnc2c(N)nc(N)nc21`, with 2.6 µM. Take `C[C@@]1(O)[C@H](O)[C@@H](CO)O[C@H]1n1cnc2cnc(N)nc21`: the IC50 is 46 µM.

On to `CO[C@]1(C)[C@H](O)[C@@H](CO)O[C@H]1n1cnc2c(N)ncnc21`, for which the half-maximal inhibitory concentration (IC50) is more than 50 µM. `CO[C@@H]1[C@H](O)[C@@H](CO)O[C@H]1n1cnc2c(=O)[nH]c(N)nc21` displayed a concentration for half-maximal inhibition (IC50) of 1.6 µM.

Take `CC[C@@]1(O)[C@H](O)[C@@H](CO)O[C@H]1n1cnc2c(N)ncnc21`: the IC50 is more than 50 µM. The figure for `Nc1nc2c(ncn2[C@@H]2O[C@H](CO)[C@@H](F)[C@H]2O)c(=O)[nH]1` is 1.8 µM. As to `C[C@@]1(O)[C@@H](CO)O[C@@H](n2cnc3c(N)ncnc32)[C@@H]1O`, the half-maximal inhibitory concentration (IC50) is more than 50 µM. Then `Nc1ncnc2c1ncn2[C@@H]1O[C@H](CO)[C@@H](F)[C@H]1O`, with 28 µM; and `CO[C@@H]1[C@H](O)[C@@H](CO)O[C@H]1n1cnc2c(N)ncnc21`, with 47 µM. In the case of `Nc1nc2c(ncn2[C@@H]2O[C@H](CO)C[C@H]2O)c(=O)[nH]1`, 0.6 µM corresponded to half-maximal inhibition (IC50). Then `C[C@@]1(O)[C@H](O)[C@@H](CO)O[C@H]1n1cnc2c(N)ncnc21`, with 1.9 µM.

As to `C[C@]1(O)[C@H](O)[C@@H](CO)O[C@H]1n1cnc2c(N)ncnc21`, the IC50 was more than 50 µM. Then `C[C@@]1(O)[C@H](O)[C@@H](CO)O[C@H]1n1cnc2c(=O)[nH]cnc21`, with 4 µM. In turn, `Nc1nc2c(ncn2[C@@H]2O[C@H](CO)C(O)[C@H]2O)c(=O)[nH]1` (single isomer, unassigned) displayed an IC50 of 20 µM. The figure for `C[C@@]1(O)[C@H](O)[C@@H](CO)O[C@H]1n1cnc2c(=O)[nH]c(N)nc21` [2'-B-METHYL-GUANOSINE] is 0.13 µM. The molecule `Nc1ncnc2c1ncn2[C@@H]1O[C@H](CO)[C@@H](O)[C@H]1F` [2'-BETA-FLUORO-2',3'-DEOXYADENOSINE] returned a 50% inhibitory concentration (IC50) of more than 50 µM. With `Nc1ncnc2c1ncn2[C@@H]1O[C@H](CO)C[C@H]1O` [CORDYCEPIN], half-maximal inhibition (IC50) required 22 µM. `Nc1ncnc2c1ncn2[C@@H]1O[C@H](CO)[C@@H](O)[C@@H]1O` [VIDARABINE]: it took 50 µM to reach half-maximal inhibition (IC50).
